Assay results published in patent publication US10183942B2, “JAK kinase inhibitor compounds for treatment of respiratory disease” (THERAVANCE BIOPHARMA R&D IP, LLC, priority 2015, dated 2019).

Experiments:
[1] = Pharmacokinetics in plasma and lung in mouse; format: in vivo; conditions: oral aspiration 0.2 mg/mL 50 uL, lung AUC / plasma AUC
Method: Plasma and lung levels of test compounds and ratios thereof were determined in the following manner. BALB/c mice from Charles River Laboratories were used in the assay. Test compounds were individually formulated in 20% propylene glycol in pH 4 citrate buffer at a concentration of 0.2 mg/mL and 50 uL of the dosing solution was introduced into the trachea of a mouse by oral aspiration. At various time points (typically 0.167, 2, 6, 24 hr) post dosing, blood samples were removed via cardiac puncture and intact lungs were excised from the mice. Blood samples were centrifuged (Eppendorf centrifuge, 5804R) for 4 minutes at approximately 12,000 rpm at 4° C. to collect plasma. Lungs were padded dry, weighed, and homogenized at a dilution of 1:3 in sterile water. Plasma and lung levels of test compound were determined by LC-MS analysis against analytical standards constructed into a standard curve in the test matrix. A lung to plasma ratio was determined as the ratio of the lung AUC in μg hr/g to the plasma AUC in […], where AUC is conventionally defined as the area under the curve of test compound concentration vs. time.

JAK1 = JAK1 (Homo sapiens (Human), UniProt P23458)
[2] = system: IL-13 induced pSTAT6 induction in lung tissue; experiment: Murine model of IL-13 induced pSTAT6 induction in lung tissue; format: in vivo; conditions: mouse lung; for lung concentration smaller than that of the corresponding compound of the invention by a factor: pharmacodynamic assay, C-1 vs 1, C-2 vs 7, C-3 vs 13, C-4 vs 6; for inhibition of STAT6 phosphorylation in the pharmacodynamic assay: IL-13 challenge 4 h after dose
Method: 11-13 is an important cytokine underlying the pathophysiology of asthma (Kudlacz et al. Eur. J. Pharmacol, 2008, 582, 154-161). IL-13 binds to cell surface receptors activating members of the Janus family of kinases (JAK) which then phosphorylate STAT6 and subsequently activates further transcription pathways. In the described model, a dose of IL-13 was delivered locally into the lungs of mice to induce the phosphorylation of STAT6 (pSTAT6) which is then measured as the endpoint.
Adult balb/c mice from Harlan were used in the assay. On the day of study, animals were lightly anesthetized with isoflurane and administered either vehicle or test compound (0.5 mg/mL, 50 μL total volume over several breaths) via oral aspiration. Animals were placed in lateral recumbency post dose and monitored for full recovery from anesthesia before being returned to their home cage. Four hours later, animals were once again briefly anesthetized and challenged with either vehicle or IL-13 ([…] total dose delivered, 50 μL total volume) via oral aspiration before being monitored for recovery from anesthesia and returned to their home cage. One hour after vehicle or IL-13 administration, lungs were collected for both pSTAT6 detection using an anti-pSTAT6 ELISA (rabbit mAb capture/coating antibody; mouse mAb detection/report antibody: anti-pSTAT6-pY641; secondary antibody: anti-mouse IgG-HRP) and analyzed for total drug concentration as described above in Assay 4.
Selected compounds of the invention were tested in the assay. Activity in the model is evidenced by a decrease in the level of pSTAT6 present in the lungs of treated animals at 5 hours compared to the vehicle treated, IL-13 challenged control animals. The difference between the control animals which were vehicle-treated, IL-13 challenged and the control animals which were vehicle-treated, vehicle challenged dictated the 0% and 100% inhibitory effect, respectively, in any given experiment.

[3] = system: interleukin-13 induced STAT6 phosphorylation in BEAS-2B human lung epithelial cells; experiment: Cellular JAKI potency assay (AlphaScreen, BEAS-2B); format: cell-based; conditions: C-1 vs 1, C-2 vs 7, C-3 vs 13, C-4 vs 6
Method: The AlphaScreen JAKI cellular potency assay was carried out by measuring interleukin-13 (IL-13, R&D Systems) induced STAT6 phosphorylation in BEAS-2B human lung epithelial cells (ATCC). The anti-STAT6 antibody (Cell Signaling Technologies) was conjugated to AlphaScreen acceptor beads (Perkin Elmer), while the anti-pSTAT6 (pTyr641) antibody (Cell Signaling Technologies) was biotinylated using EZ-Link Sulfo-NHS-Biotin (Thermo Scientific).
BEAS-2B cells were grown at 37° C. in a 5% CO2 humidified incubator in 50% DMEM/50% F-12 medium (Life Technologies) supplemented with 10% FBS (Hyclone), 100 U/mL penicillin, 100 μg/mL streptomycin (Life Technologies), and 2 mM GlutaMAX (Life Technologies). On day 1 of the assay, cells were seeded at a 7,500 cells/well density in white poly-D-lysine-coated 384-well plates (Corning) with 25 μL medium, and were allowed to adhere overnight in the incubator. On day 2 of the assay, the medium was removed and replaced with 12 μL of assay buffer (Hank's Balanced Salt Solution/HBSS, 25 mM HEPES, and 1 mg/ml bovine serum albumin/BSA) containing dose-responses of test compounds. Compounds were serially diluted in DMSO and then diluted another 1000-fold in media to bring the final DMSO concentration to 0.1%. Cells were incubated with test compounds at 37° C. for 1 h, and followed by the addition of 12 μl of pre-warmed IL-13 (80 ng/ml in assay buffer) for stimulation. After incubating at 37° C. for 30 min, the assay buffer (containing compound and IL-13) was removed, and 10 μl of cell lysis buffer (25 mM HEPES, 0.1% SDS, 1% NP-40, 5 mM MgCl2, 1.3 mM EDTA, 1 mM EGTA, and supplement with Complete Ultra mini protease inhibitors and PhosSTOP from Roche Diagnostics). The plates were shaken at ambient temperature for 30 min before the addition of detection reagents. […] After a minimum of 2 h incubation, the assay plates were read on the EnVision plate reader.
Results were expressed as the negative logarithm of the IC50 value, pIC50.

[4] = Dynamic moisture sorption assessment; format: physicochemical
Method: Dynamic moisture sorption (DMS) measurement was performed using a VTI atmospheric microbalance, SGA-100 system (VTI Corp., Hialeah, Fla. 33016). A weighed sample was used and the humidity was lowest possible value (close to 0% RH) at the start of the analysis. The DMS analysis consisted of an initial drying step (˜0% RH) for 120 minutes, followed by two cycles of sorption and desorption with a scan rate of 5% RH/step over the humidity range of 5% RH to 90% RH. The DMS run was performed isothermally at 25° C.

JAK1, sequence (P23458 whole entry): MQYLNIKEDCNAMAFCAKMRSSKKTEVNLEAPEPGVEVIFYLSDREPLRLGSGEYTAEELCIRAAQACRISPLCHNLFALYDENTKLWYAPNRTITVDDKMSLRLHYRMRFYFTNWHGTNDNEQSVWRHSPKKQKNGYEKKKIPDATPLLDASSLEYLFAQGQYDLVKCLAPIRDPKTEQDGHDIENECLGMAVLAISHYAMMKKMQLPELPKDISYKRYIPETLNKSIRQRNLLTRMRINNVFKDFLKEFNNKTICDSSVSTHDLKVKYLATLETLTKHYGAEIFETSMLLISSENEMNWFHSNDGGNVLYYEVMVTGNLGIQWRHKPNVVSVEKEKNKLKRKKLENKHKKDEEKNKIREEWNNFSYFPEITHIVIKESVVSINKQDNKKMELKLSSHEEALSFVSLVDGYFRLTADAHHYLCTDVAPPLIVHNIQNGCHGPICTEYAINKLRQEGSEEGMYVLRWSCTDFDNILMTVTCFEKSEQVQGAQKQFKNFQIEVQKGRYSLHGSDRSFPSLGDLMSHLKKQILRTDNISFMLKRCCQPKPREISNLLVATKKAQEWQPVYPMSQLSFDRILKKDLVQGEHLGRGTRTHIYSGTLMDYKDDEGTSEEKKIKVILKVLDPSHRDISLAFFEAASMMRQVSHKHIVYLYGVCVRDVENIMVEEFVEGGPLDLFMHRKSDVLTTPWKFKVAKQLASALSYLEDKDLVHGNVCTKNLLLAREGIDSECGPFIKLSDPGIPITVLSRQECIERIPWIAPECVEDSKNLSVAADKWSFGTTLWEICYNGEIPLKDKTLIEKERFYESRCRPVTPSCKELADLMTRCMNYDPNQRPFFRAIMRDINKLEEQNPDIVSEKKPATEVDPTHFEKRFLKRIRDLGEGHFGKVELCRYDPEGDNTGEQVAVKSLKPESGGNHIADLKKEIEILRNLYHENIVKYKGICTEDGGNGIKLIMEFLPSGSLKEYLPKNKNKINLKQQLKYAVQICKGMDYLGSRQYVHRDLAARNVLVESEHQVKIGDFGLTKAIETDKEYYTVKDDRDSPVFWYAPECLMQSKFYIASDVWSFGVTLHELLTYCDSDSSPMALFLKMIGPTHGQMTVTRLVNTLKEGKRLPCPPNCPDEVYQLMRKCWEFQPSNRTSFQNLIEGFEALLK

Compound | Lung to Plasma ratio Assay 4 [1] | Ki (JAK1) [nM] | other results
CCc1cc(O)c(F)cc1-c1ccc2c(-c3nc4c([nH]3)CCN(C[C@@H]3COCCN3)C4)n[nH]c2c1 [Example 14, (R)-5-Ethyl-2-fluoro-4-(3-(5-(morpholin-3-ylmethyl)-4,5,6,7-tetrahydro-1H-imidazo[4,5-c]pyridin-2-yl)-1H-indazol-6-yl)phenol] | A (A denotes a ratio >100) | – | –
CCc1cc(O)c(F)cc1-c1ccc2c(-c3nc4c([nH]3)CCN(CCNC3CC(OC)C3)C4)n[nH]c2c1 (stereo not shown) [Example 8, 5-Ethyl-2-fluoro-4-(3-(5-(2-((3-methoxycyclobutyl)amino)ethyl)-4,5,6,7-tetrahydro-1H-imidazo[4,5-c]pyridin-2-yl)-1H-indazol-6-yl)phenol] | A (A denotes a ratio >100) | – | –
CCc1cc(O)c(F)cc1-c1ccc2c(-c3nc4c([nH]3)CCN(C3CN(CCO)C3)C4)n[nH]c2c1 [Example 1-1] | – | < 0.1 | –
CCc1cc(O)c(F)cc1-c1ccc2c(-c3nc4c([nH]3)CCN(C[C@H]3COCCN3)C4)n[nH]c2c1 [Example 13, (S)-5-Ethyl-2-fluoro-4-(3-(5-(morpholin-3-ylmethyl)-4,5,6,7-tetrahydro-1H-imidazo[4,5-c]pyridin-2-yl)-1H-indazol-6-yl)phenol] | A (A denotes a ratio >100) | – | –
CCc1cc(O)c(F)cc1-c1ccc2c(-c3nc4c([nH]3)CCN(C[C@@H]3CCCN3C)C4)n[nH]c2c1 [Example 11, (S)-5-ethyl-2-fluoro-4-(3-(5-((1-methylpyrrolidin-2-yl)methyl)-4,5,6,7-tetrahydro-1H-imidazo[4,5-c]pyridin-2-yl)-1H-indazol-6-yl)phenol] | A (A denotes a ratio >100) | – | –
CCc1cc(O)c(F)cc1-c1ccc2c(-c3nc4c([nH]3)CCN(C3CC(C)C3)C4)n[nH]c2c1 (stereo not shown) [Example C-1, 5-Ethyl-2-fluoro-4-(3-(5-(3-methylcyclobutyl)-4,5,6,7-tetrahydro-1H-imidazo[4,5-c]pyridin-2-yl)-1H-indazol-6-yl)phenol] | – | – | lung concentration smaller than that of the corresponding compound of the invention by a factor [2]: 36
CCc1cc(O)c(F)cc1-c1ccc2c(-c3nc4c([nH]3)CCN(C3CN(C5CCS(=O)(=O)C5)C3)C4)n[nH]c2c1 (stereo not shown) [Example 1-15] | – | – | inhibition of STAT6 phosphorylation in the pharmacodynamic assay [2]: exceptions
CCc1cc(O)c(F)cc1-c1ccc2c(-c3nc4c([nH]3)CCN(C3CN(CC)C3)C4)n[nH]c2c1 [Example 1-3] | – | < 0.1 | –
CCc1cc(O)c(F)cc1-c1ccc2c(-c3nc4c([nH]3)CCN(CCN3CCC[C@@H]3C)C4)n[nH]c2c1 [Example 15, (S)-5-ethyl-2-fluoro-4-(3-(5-(2-(2-methylpyrrolidin-1-yl)ethyl)-4,5,6,7-tetrahydro-1H-imidazo[4,5-c]pyridin-2-yl)-1H-indazol-6-yl)phenol] | A (A denotes a ratio >100) | – | –
CCc1cc(O)c(F)cc1-c1ccc2c(-c3nc4c([nH]3)CCN(C3CN(CCOC)C3)C4)n[nH]c2c1 [Example 1-6] | – | < 0.1 | –
CCc1cc(O)c(F)cc1-c1ccc2c(-c3nc4c([nH]3)CCN(CCC(C)C)C4)n[nH]c2c1 [Example C-2] | – | – | fold less potent than the corresponding compound of the invention in the BEAS-2B cellular assay [3]: 6 fold; lung concentration smaller than that of the corresponding compound of the invention by a factor [2]: 52
CCc1cc(O)c(F)cc1-c1ccc2c(-c3nc4c([nH]3)CCN(CC3CNC3)C4)n[nH]c2c1 [Example 14-7] | A (A denotes a ratio >100) | < 0.1 | –
CCc1cc(O)c(F)cc1-c1ccc2c(-c3nc4c([nH]3)CCN(C3CCC(C)CC3)C4)n[nH]c2c1 (stereo not shown) [Example C-4] | – | – | fold less potent than the corresponding compound of the invention in the BEAS-2B cellular assay [3]: 6 fold; lung concentration smaller than that of the corresponding compound of the invention by a factor [2]: 23
CCc1cc(O)c(F)cc1-c1ccc2c(-c3nc4c([nH]3)CCN(C3CCNCC3)C4)n[nH]c2c1 [Example 2-3] | – | < 0.1 | –
CCc1cc(O)c(F)cc1-c1ccc2c(-c3nc4c([nH]3)CCN(CCNC3(C#N)CC3)C4)n[nH]c2c1 [Example 3-1] | – | – | inhibition of STAT6 phosphorylation in the pharmacodynamic assay [2]: exceptions
CCc1cc(O)c(F)cc1-c1ccc2c(-c3nc4c([nH]3)CCN(C3CCN(C)CC3)C4)n[nH]c2c1 [crystalline hydrate, Crystalline hydrate of 5-ethyl-2-fluoro-4-(3-(5-(1-methylpiperidin-4-yl)-4,5,6,7-tetrahydro-1H-imidazo[4,5-c]pyridin-2-yl)-1H-indazol-6-yl)phenol] | – | – | weight gain in dynamic moisture sorption ([4]; 5% to 90% relative humidity, about 25° C.): less than 0.12%; hygroscopicity ([4]; two cycles of sorption and desorption): non-hygroscopic
CCc1cc(O)c(F)cc1-c1ccc2c(-c3nc4c([nH]3)CCN(CC3CCCOC3)C4)n[nH]c2c1 (stereo not shown) [Example C-3] | – | – | fold less potent than the corresponding compound of the invention in the BEAS-2B cellular assay [3]: 3 fold; lung concentration smaller than that of the corresponding compound of the invention by a factor [2]: 13
CCc1cc(O)c(F)cc1-c1ccc2c(-c3nc4c([nH]3)CCN(C3CN(CCC#N)C3)C4)n[nH]c2c1 [Example 1-8] | – | < 0.1 | –
CCc1cc(O)c(F)cc1-c1ccc2c(-c3nc4c([nH]3)CCN(CCN(C)CC(C)C)C4)n[nH]c2c1 [Example 3-33] | A (A denotes a ratio >100) | – | –
CCc1cc(O)c(F)cc1-c1ccc2c(-c3nc4c([nH]3)CCN(C3CCNC3)C4)n[nH]c2c1 (stereo not shown) [Example 9-1] | – | < 0.1 | –
